Here are results for 7 molecules from ChEMBL document CHEMBL1153262, “Polyketide synthase thioesterases catalyze rapid hydrolysis of peptidyl thioesters” (Bioorg Med Chem Lett, 2009).

Assay [1] in a line: Ratio of kcat/km of PKS TEs assessed as hydrolysis of epothilone.
A short description of assay [2]: Ratio of kcat/km of PKS TEs assessed as hydrolysis of 6-deoxyerythronolide-B.
The nature of assay [3]: Ratio of kcat/km of PKS TEs assessed as hydrolysis of pimaricin.
Assay [4] can be described thus: Activity at PKS TEs assessed as hydrolysis of epothilone.
Assay [5] can be described thus: Activity at PKS TEs assessed as hydrolysis of pimaricin.

`CC(=O)NCCSC(=O)[C@@H](C)NC(=O)OC(C)(C)C`: the kcat/Km in assay [1] was 12.5 M⁻¹ s⁻¹; in assay [2] it was 0.5 M⁻¹ s⁻¹.

Regarding `CC(=O)NCCSC(=O)CCNC(=O)c1ccccc1`, the kcat/Km in assay [3] amounted to 1.14 M⁻¹ s⁻¹; in assay [1] it was 24.2 M⁻¹ s⁻¹; in assay [2] it was 7.75 M⁻¹ s⁻¹.

As for `CC(=O)NCCSC(=O)[C@H](C)NC(=O)OC(C)(C)C`, the catalytic efficiency (kcat/Km) in assay [1] was 91.3 M⁻¹ s⁻¹; in assay [2], 0.88 M⁻¹ s⁻¹.

With `CC(=O)NCCSC(=O)CNC(=O)[C@H](C)NC(=O)OC(C)(C)C`, in assay [4], the Km amounted to 2900 µM and the kcat was determined as 0.32 s⁻¹. Further, the kcat/Km in assay [1] turned out to be 110 M⁻¹ s⁻¹. Moreover, the kcat/Km in assay [2] was 0.39 M⁻¹ s⁻¹.

`CC(=O)NCCSC(=O)CNC(=O)[C@@H](C)NC(=O)OC(C)(C)C`: in assay [4], the Michaelis-Menten constant (Km) came to 1300 µM and the kcat was 0.0517 s⁻¹. Further, in assay [1], the kcat/Km turned out to be 38.8 M⁻¹ s⁻¹. Besides, the kcat/Km in assay [2] turned out to be 0.8 M⁻¹ s⁻¹.

Regarding `CC(=O)NCCSC(=O)CNC(=O)OC(C)(C)C`, the kcat/Km in assay [3] was found to be 1.29 M⁻¹ s⁻¹; in assay [1], 145 M⁻¹ s⁻¹; in assay [2] it was 7 M⁻¹ s⁻¹.

Take `CC(=O)NCCSC(=O)CCCCCCNC(=O)OC(C)(C)C`: the Michaelis-Menten constant (Km) in assay [4] stood at 400 µM; in assay [5], 800 µM. The results for the kcat in assay [4] and in assay [5] were 0.0303 s⁻¹ and 0.02 s⁻¹, respectively. Besides, the kcat/Km was 23.3 M⁻¹ s⁻¹ in assay [3], 75.1 M⁻¹ s⁻¹ in assay [1] and 1.47 M⁻¹ s⁻¹ in assay [2].
